Calls of active or inactive are those of the source. The calls are words filed in the database; no cut-off is given here.
Key:
Rhesus monkey [1] = assay: In vivo displacement of [11C]FMZ from rhesus monkey GABA-A receptor at 3.5 mg/kg, iv after 50 to 90 mins by PET analysis; type: functional, organism-based; conditions: Macaca mulatta
Rhesus monkey [2] = assay: In vivo displacement of [11C]FMZ from rhesus monkey GABA-A receptor at 7 mg/kg, iv after 50 to 90 mins by PET analysis; type: functional, organism-based; conditions: Macaca mulatta
[3] = biological target: T1, GABA-A receptor; anion channel (Homo sapiens) (UniProt P14867+P47870+P18507+P28472+P48169+Q99928+Q9UN88+P34903+O00591+O14764+Q8N1C3+P18505+P78334+P47869+P31644+Q16445); assay: Negative allosteric modulation of GABA-A receptor (unknown origin) at 300 uM by whole cell patch clamp assay
[4] = biological target: GABA-A receptor; anion channel; assay: Displacement of [3H]FMZ from GABA-A receptor in rat brain after 30 mins by autoradiography; type: tissue-based
Rhesus monkey [5] = assay: In vivo displacement of [11C]FMZ from rhesus monkey GABA-A receptor assessed as late distribution volume ratio to early distribution volume ratio of […] at 3.5 mg/kg, iv by Logan plot analysis (reference value: 115 to 121 %); type: functional, Macaca mulatta
Rhesus monkey [6] = assay: In vivo displacement of [11C]FMZ from rhesus monkey GABA-A receptor assessed late distribution volume ratio to early distribution volume ratio of […] at 7 mg/kg, iv by Logan plot analysis (reference value: 115 to 121 %); type: functional, Macaca mulatta
[7] = biological target: T1, GABA-A receptor; anion channel (Homo sapiens); assay: Negative allosteric modulation of GABA-A receptor (unknown origin) at 3 uM by whole cell patch clamp assay
[8] = biological target: GABA-A receptor; anion channel (Rattus norvegicus) (UniProt O09028+P15431+P18506+P18508+P19969+P20236+P23574+P23576+P28471+P28473+P30191+P62813+P63079+P63138+Q91ZM7+Q9ES14); conditions: Brain, 10 uM
Description: Displacement of [3H]FMZ from GABA-A receptor in rat brain at 10 uM preincubated for 30 mins followed by FMZ addition measured up to 16 mins

Rhesus monkey [9] = assay: In vivo displacement of [11C]FMZ from rhesus monkey GABA-A receptor at 0.5 mg/kg, iv after 50 to 90 mins by PET analysis; type: functional, organism-based; conditions: Macaca mulatta

Structure (SMILES): CC[C@H]1OC(=O)[C@H](C)[C@@H](O[C@H]2C[C@@](C)(OC)[C@@H](O)[C@H](C)O2)[C@H](C)[C@@H](O[C@@H]2O[C@H](C)C[C@H](N(C)C)[C@H]2O)[C@](C)(OC)C[C@@H](C)C(=O)[C@H](C)[C@@H](O)[C@]1(C)O [CLARITHROMYCIN]
- inhibition (Rhesus monkey [1]): inactive
- inhibition (Rhesus monkey [2]): inactive
- inhibition [3]: 45%
- Ki [4]: > 10 µM
- Activity (Rhesus monkey [5]): 108 - 131%
- Activity (Rhesus monkey [6]): 89 - 186%
- inhibition [7]: 18%
- inhibition [8]: inactive

Structure (SMILES): CCOC(=O)c1ncn2c1CN(C)C(=O)c1cc(F)ccc1-2
- Activity (Rhesus monkey [9]): Active

From ChEMBL document CHEMBL4431373, “Investigation of Proposed Activity of Clarithromycin at GABAA Receptors Using [(11)C]Flumazenil PET” (ACS Med Chem Lett, 2016)
